How the values were obtained:
[1] = system: 775T cell line (patient-derived brain glioblastoma); test: Screening of anti-cancer agent using limiting dilution assay (sphere formation, ratio of non-formed wells); type: cell-based, human; conditions: 775T as compared to 448T and 464T cell lines; cultured 2 to 3 weeks (FIG. 5)
Description: The patient-specific anti-cancer agent was screened by using a limiting dilution assay according to the above-described Examples, and a result obtained therefrom was compared with a result separately obtained by a screening method using a 96 well plate. Alginate gel containing 2, 5, 10, 20, 50 or 100 cells was discharged onto each micropillar and was subjected to stamping into a culture medium containing the anti-cancer agent. The anti-cancer agent SU11274 and PHA665752, which is c-Met inhibitor, was treated for each concentration. A size of spheres formed after being cultured for 2 to 3 weeks was automatically measured and analyzed. Whether or not the sphere is formed was determined by culturing cells of the experimental group and the control group up to 4 doubling times and comparing sphere area max values of the biggest spheres among the spheres formed in each well, as shown in FIG. 4. […] Here, the well having sphere area max value smaller than the reference value was determined that the spheres were not formed in the well (non-formed). The well having sphere area max value as the same as the average value of the sphere area max of the control group or higher than that was determined that the sphere were formed in the well (formed). […]

[2] = system: patient-derived cancer cells (brain glioblastoma); test: Three-dimensional culture of patient-derived cancer cells in alginate on micropillar chip, Calcein AM sphere staining; type: cell-based, human
Protocol: The suspension-cultured neurospheres obtained in Example above were collected and treated with 0.025% trypsin/EDTA for 3 minutes, thereby obtaining cell suspensions at a level of a single cell. The cell suspensions were prepared at a concentration of 4 cells/30 nl, 10 cells/30 nl, 20 cells/30 nl, 40 cells/30 nl, 100 cells/30 nl and 200 cells/30 nl, respectively. 50 μL of 3% alginate (Sigma-Aldrich, US) and 100 μL distilled water were mixed to prepare 1% alginate, and then the cell suspensions and 1% alginate as prepared above were mixed together in the same amount. The prepared alginate/cell mixture was discharged onto the surface-modified micropillar using a microarray spotter (Samsung Electro-Mechanics Co., Korea), followed by gelation for 2 minutes so that an alginate gel containing 2, 5, 10, 20, 50 or 100 cells was fixed onto each micropillar (FIG. 1). Each of 950 nl of 2 μM, 5 μM or 10 μM SU11274 (Sigma-Aldrich, US) was dispersed into a microwell chip (Samsung Electro-Mechanics Co., Korea) and the micropillar chip was subjected to stamping. […] 4 doubling time incubation was performed until spheres were formed from the patient-derived cancer cells, and the micropillar chip was subjected to fluorescence staining. […]

Cc1[nH]c(/C=C2\C(=O)Nc3ccc(S(=O)(=O)N(C)c4cccc(Cl)c4)cc32)c(C)c1C(=O)N1CCN(C)CC1 [SU11274]
sensitivity of cell line to anti-cancer effect in limiting dilution assay [1]: most sensitive anti-cancer effects | survival rate of the cancer cells ([2]; 2 μM, 5 μM or 10 μM, 2-100 cells per alginate gel, cultured 12 days, Calcein AM staining (FIG. 2)): survival rate of the cancer cells were decreased | sphere formation (maximum sphere area) ([2]; 5 uM, 12 days, control group sphere areas increased to a maximum of 10.14 times (FIG. 3)): did not form the spheres

Cc1[nH]c(/C=C2\C(=O)Nc3ccc(S(=O)(=O)Cc4c(Cl)cccc4Cl)cc32)c(C)c1C(=O)N1CCC[C@@H]1CN1CCCC1 [PHA665752]
sensitivity of cell line to anti-cancer effect in limiting dilution assay [1]: most sensitive anti-cancer effects
